Experimental data from patent US20120115955A1, “Methods for tumor treatment and adipogenesis differentiation” (Centro de Investigacion Principe Felipe, priority 2010, published 2012).
Entries after “also recorded” stand apart in the source; their conditions may differ.

Tests used:
[1] = tested on: MALME-3M cells; assay: Nile-Red neutral lipid / LD quantification by flow cytometry (FL2); type: cell-based, human; conditions: 12 hours, vs DMSO control; for LD accumulation (Nile-RED): 100 μg/ml each fatty acid, except 10 μg/ml docosahexaenoic and arachidonic acid; for fold induction at 100 µg/mL: Homo sapiens, 100 μg/ml, read-out: generation of LDs, fold induction (Nile-RED FL2)
Experimental: FIG. 6. […] MALME-3M cells were cultured in the presence of 10 μg/ml of docosahexaenoic acid, 100 μg/ml of nervonic acid, 100 μg/ml of erucic acid, 10 μg/ml of arachidonic acid, 100 μg/ml of linolenic acid, 100 μg/ml of linoleic acid, 100 μg/ml of oleic acid, 100 μg/ml of palmitoleic acid, 100 μg/ml of elaidic acid, or 100 μg/ml petroselinic acid for 12 hours. Fatty acids were dissolved in DMSO; therefore the cells cultured with RPMI+10% FBS and treated with DMSO only were considered negative controls. The Nile-Red analysis was performed as described in the Material and Methods section. Quantification in the FL2 parameter was assessed by the FlowJo software. Fold induction was estimated by calculating the ratio between treated conditions and the untreated condition (control). The results are representative of three independent experiments.
(§1) Cells (10^5) were washed twice in PBS and then incubated with 25 μg/ml of Nile-Red (Invitrogen) in PBS (15 min, 4° C.). After incubation, cells were filtered through a 30 μm sieve (CellTrics, Partec). Fluorescent emission (525 nm) was registered in the FL2 channel by a Beckman Coulter Flow Cytometer (Cytomics™ FC 500). Data files were analyzed using the FlowJo flow cytometer analysis software.

[2] = tested on: HCCLs (MALME-3M, MCF-7, SK-OV-3, HUH-7); assay: Flow cytometry FSC and SSC parameters of HCCLs; type: cell-based, human; conditions: mini-screen of unsaturated fatty acids associated with albumin; HUH-7, SK-OV-3, MCF-7, MALME-3M
[3] = tested on: HUH-7 cells; type: cell-based
Experimental: as §1

| SMILES | LD accumulation (Nile-RED) [1] | fold induction at 100 µg/mL [1] | modifications in the forward and side scatter parameters [2] | LD accumulation by single fatty acid [3] |
| --- | --- | --- | --- | --- |
| CCCCCCCC/C=C/CCCCCCCC(=O)O [elaidic acid, reference compound] | LD accumulation was induced | – | – | – |
| CCCCCCCCCCC/C=C\CCCCC(=O)O [petroselinic acid, cis-6-octadecenoic] | LD accumulation was induced | ≥ 6 | – | – |
| CCCCCCCC/C=C\CCCCCCCC(=O)O [oleic acid, (9Z)-Octadec-9-enoic acid] | LD accumulation was induced | ≥ 6 | remarkable modifications in the forward and side scatter parameters | – |
| CCCCCCC=CCCCCCCCC(=O)O [palmitoleic acid, hexadec-9-enoic acid] | LD accumulation was induced | ≥ 6 | remarkable modifications in the forward and side scatter parameters | – |
| CCCCC/C=C\C/C=C\CCCCCCCC(=O)O [linoleic acid, cis, cis-9,12-octadecadienoic acid] | triggers LD accumulation; also recorded: LD accumulation was induced | ≥ 6 | remarkable modifications in the forward and side scatter parameters | triggers LD accumulation |
| CCCCCCCC/C=C\CCCCCCCCCCCC(=O)O [erucic acid, reference compound] | LD accumulation was induced | – | – | – |
